# In patent publication US7064202B1 (University of Kentucky Research Foundation, priority 2003, dated 2006):
# Columns and labels:
# [1] = Stability of free and core-loaded liposomal prodrug in whole blood
# [2] = type: in vitro ADME, human; conditions: for prodrug decomposition: PBS pH 7.4, human plasma and blood, RP-HPLC
# [3] = RP-HPLC stability (decomposition) of 20-OR ester prodrugs in PBS pH 7.4; type: physicochemical
# Text: CPT glycinate fragmentation pattern [m/z(%)] was: 406 (25%), 331 (100%), 303 (30%); CPT ortho lactone fragmentation pattern was: 406 (100%), 388 (40%), 303 (20%). […] HPLC data for each analog studied was consistent with the generation of the novel decomposition products, along with the lactone and carboxylate forms of the parent drug. […] N-methyl CPT glycinate fragmentation pattern [m/z(%)] was: 420 (86%), 331 (100%), 303 (30%); CPT N-methyl ortho lactone fragmentation pattern was: 420 (100%), 402 (50%), 303 (37%). As in the case for the camptothecin glycinate ester, the novel degradation products were generated from the proposed lactam intermediate. Further evidence for proposed degradation products 3 and 4 includes: (1) Glycine carbonyl ^13C isotopic labeling NMR experiment in PBS showing that this carbon exists as a tetrahedral carbon as in 3. (2) Glycine ^15N isotopic labeling NMR experiments showing that 3 and 4 have amide bonds.
compound,measurement,setting,value
DB-67 4-aminobutanoate ester,decomposition of free prodrug,[1],extensive
CCc1c2c(nc3ccc(O)cc13)-c1cc3c(c(=O)n1C2)COC(=O)C3(CC)OC(=O)CN (stereo not drawn) [SN-38 glycinate ester],prodrug decomposition,[2],extensive chemical (i.e. non-enzymatic) decomposition
"CCC1(OC(=O)CCCN)C(=O)OCc2c1cc1n(c2=O)Cc2cc3ccccc3nc2-1 (stereo not drawn) [R=COCH2CH2CH2NH2, camptothecin 4-aminobutanoate ester]",half-life of decomposition,"[3]; buffer, pH 7.4",36.7 h
"CC[C@@]1(OC(C)=O)C(=O)OCc2c1cc1n(c2=O)Cc2cc3ccccc3nc2-1 [camptothecin-20(S)-acetate, reference compound]",stability / hydrolysis,[2]; pH 7.4,excellent stability
"CCC1(OC(=O)CN)C(=O)OCc2c1cc1n(c2=O)Cc2cc3ccccc3nc2-1 [camptothecin-20(S)-glycinate 1, camptothecin-20(S)-glycinate]",decomposition,"[3]; 1 μM, PBS (pH 7.4), 37° C., within 3 hours",~90%
same,prodrug decomposition,[2],extensive chemical (i.e. non-enzymatic) decomposition
